Results taken from the CheMixHub ionic liquid set.

Test: xn = mol fraction of the nth substance listed

CC(O)C(C)O (stereo not drawn) + CCCC[N+](C)(C)C.O=S(=O)([N-]S(=O)(=O)C(F)(F)F)C(F)(F)F
101 kPa
Conditions | viscosity [mPa·s]
323.15 K, x1 = 0.557 | 16.54
323.15 K, x1 = 0.6216 | 16.03
328.15 K, x1 = 0.557 | 13.6
333.15 K, x1 = 0.3137 | 15.23
333.15 K, x1 = 0.4515 | 13.1
333.15 K, x1 = 0.557 | 11.67
343.15 K, x1 = 1 | 6.7

C[NH2+]CCC=C1c2ccccc2CCc2ccccc21.[Cl-] + CCCCCC[n+]1ccn(C)c1.[Br-] + O
viscosity [mPa·s], 100 kPa
Conditions | 288.15 K | 298.15 K | 308.15 K | 318.15 K
x1 = 0.0002039, x2 = 0.00126 | 1.185 | 0.957 | 0.792 | 0.677
x1 = 0.000208, x2 = 0.0001801 | 1.17 | 0.938 | 0.775 | 0.658
x1 = 0.0002218, x2 = 0.0007201 | 1.178 | 0.948 | 0.785 | 0.658
x1 = 0.0005639, x2 = 0.0001801 | 1.181 | 0.948 | 0.785 | 0.667
x1 = 0.0005652, x2 = 0.001259 | 1.196 | 0.967 | 0.802 | 0.688
x1 = 0.0005656, x2 = 0.0007199 | 1.189 | 0.957 | 0.794 | 0.667
x1 = 0.0009086, x2 = 0.0007196 | 1.201 | 0.967 | 0.803 | 0.676
x1 = 0.0009302, x2 = 0.00018 | 1.192 | 0.958 | 0.795 | 0.676
x1 = 0.0009557, x2 = 0.001259 | 1.208 | 0.978 | 0.812 | 0.699
x1 = 0.001281, x2 = 0.001258 | 1.22 | 0.989 | 0.822 | 0.709
x1 = 0.001285, x2 = 0.0001799 | 1.204 | 0.969 | 0.805 | 0.685
x1 = 0.001294, x2 = 0.0007194 | 1.213 | 0.977 | 0.812 | 0.685
x1 = 0.001641, x2 = 0.0001799 | 1.217 | 0.98 | 0.815 | 0.694
x1 = 0.001649, x2 = 0.0007191 | 1.226 | 0.988 | 0.821 | 0.694
x1 = 0.001666, x2 = 0.001258 | 1.233 | 1.001 | 0.832 | 0.719
x1 = 0.001985, x2 = 0.0001798 | 1.23 | 0.991 | 0.825 | 0.703
x1 = 0.002032, x2 = 0.0007188 | 1.239 | 0.999 | 0.831 | 0.703
x1 = 0.002034, x2 = 0.001257 | 1.246 | 1.013 | 0.843 | 0.728
x1 = 0.002348, x2 = 0.0001797 | 1.244 | 1.002 | 0.835 | 0.712
x1 = 0.002385, x2 = 0.0007186 | 1.253 | 1.012 | 0.842 | 0.712
x1 = 0.002389, x2 = 0.001257 | 1.26 | 1.025 | 0.854 | 0.737
x1 = 0.00272, x2 = 0.0001797 | 1.258 | 1.014 | 0.845 | 0.721
x1 = 0.002762, x2 = 0.0007183 | 1.267 | 1.025 | 0.854 | 0.721
x1 = 0.002776, x2 = 0.001256 | 1.275 | 1.037 | 0.865 | 0.746
x1 = 0.003079, x2 = 0.0001796 | 1.273 | 1.026 | 0.855 | 0.73
x1 = 0.003114, x2 = 0.000718 | 1.282 | 1.037 | 0.866 | 0.731
x1 = 0.003126, x2 = 0.001256 | 1.291 | 1.049 | 0.876 | 0.755
x1 = 0.003445, x2 = 0.0001796 | 1.288 | 1.038 | 0.865 | 0.739
x1 = 0.003472, x2 = 0.001255 | 1.307 | 1.063 | 0.888 | 0.764
x1 = 0.003507, x2 = 0.0007177 | 1.297 | 1.05 | 0.878 | 0.741

CS(C)=O + CC(N)C(=O)[O-].COCCCCn1cc[n+](C)c1
Conditions | viscosity [mPa·s]
308.15 K, 100 kPa, x2 = 0 | 1.65

CCCCCCCCCCCCCC[P+](CCCCCC)(CCCCCC)CCCCCC.[c-]1c[nH]nn1 + CCCCCCCCCCCCCC[P+](CCCCCC)(CCCCCC)CCCCCC.O=S(=O)([N-]S(=O)(=O)C(F)(F)F)C(F)(F)F
100 kPa
Conditions | viscosity [mPa·s]
288.15 K, x2 = 0.7 | 693
293.15 K, x2 = 0.5 | 502
293.15 K, x2 = 0.7 | 495
303.15 K, x2 = 0.401 | 288
303.15 K, x2 = 0.5 | 270
303.15 K, x2 = 0.7 | 270
308.15 K, x2 = 0.203 | 217
308.15 K, x2 = 0.5 | 204
308.15 K, x2 = 0.902 | 181

CCCCCCCCCCCC[N+](C)(C)Cc1ccccc1.[Cl-] + O
electrical conductivity [S/m], 101 kPa
Conditions | 293.15 K | 298.15 K | 303.15 K | 308.15 K | 313.15 K
x1 = 5.874e-05 | 0.0232 | 0.0261 | 0.0289 | 0.0318 | 0.0349
x1 = 8e-05 | 0.0313 | 0.0351 | 0.0389 | 0.0428 | 0.0469
x1 = 9.982e-05 | 0.0388 | 0.0434 | 0.0481 | 0.053 | 0.0579
x1 = 0.0001187 | 0.0459 | 0.0513 | 0.0569 | 0.0626 | 0.0686
x1 = 0.0001384 | 0.0531 | 0.0594 | 0.0658 | 0.0724 | 0.0792
x1 = 0.0001594 | 0.0603 | 0.0673 | 0.0744 | 0.0819 | 0.0899
x1 = 0.000182 | 0.0659 | 0.0734 | 0.0812 | 0.0897 | 0.0989
x1 = 0.0002056 | 0.0702 | 0.0783 | 0.087 | 0.0963 | 0.106
x1 = 0.0002284 | 0.0741 | 0.0827 | 0.092 | 0.102 | 0.113
x1 = 0.0002522 | 0.0778 | 0.0871 | 0.0969 | 0.108 | 0.12
x1 = 0.0002717 | 0.0809 | 0.0906 | 0.101 | 0.113 | 0.125
x1 = 0.0002895 | 0.0836 | 0.0937 | 0.105 | 0.117 | 0.13
x1 = 0.0003122 | 0.0872 | 0.0978 | 0.109 | 0.122 | 0.136

CCCC[n+]1ccc(C)cc1.O=S(=O)([N-]S(=O)(=O)C(F)(F)F)C(F)(F)F + CCOS(=O)(=O)[O-].CC[n+]1ccn(C)c1
100 kPa
Conditions | viscosity [mPa·s]
293.15 K, x2 = 0.1177 | 86.8
293.15 K, x2 = 0.3341 | 116.8
293.15 K, x2 = 0.558 | 145
303.15 K, x2 = 0.558 | 86.5
303.15 K, x2 = 0.7776 | 89.6
313.15 K, x2 = 0.3341 | 46.2
313.15 K, x2 = 0.6663 | 58.1
313.15 K, x2 = 0.9487 | 53.1
323.15 K, x2 = 0.6663 | 39.8
323.15 K, x2 = 0.7776 | 39.6
333.15 K, x2 = 0.1177 | 18.6
333.15 K, x2 = 0.3341 | 23.1
333.15 K, x2 = 0.558 | 27.4
333.15 K, x2 = 0.6663 | 28.5
343.15 K, x2 = 0.0475 | 13
343.15 K, x2 = 0.1177 | 14
343.15 K, x2 = 0.6663 | 21
343.15 K, x2 = 0.7776 | 21
343.15 K, x2 = 0.9487 | 19.9
353.15 K, x2 = 0.0475 | 10.3
353.15 K, x2 = 0.226 | 12.2
